Source: patent US20140206681A1, “BTK INHIBITORS” (priority 2013, published 2014)

Tests used:
HeLa cells = assay: [3H]Adenosine uptake functional cellular assay; assay type: cell-based; settings: Homo sapiens, HeLa, accumulation of [3H]adenosine into HeLa cells; compound range 10 μM to […]; read-out: Adenosine uptake inhibition IC50
Procedure, shortened: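 Inhibition of adenosine uptake was measured in HeLa cells (ATCC CCL-2) by following accumulation of tritiated adenosine. Cells were kept overnight at 37° C. with 5% (v/v) CO2, then switched to 40 μL HBSS plus 5% (v/v) FBS. 20 μL of 500 nM [3H]adenosine was added, and uptake was counted on a Topcount NXT reader.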

[1] = molecular target: T1, BTK enzyme (recombinant full-length BTK, hBTK) (Homo sapiens, UniProt Q06187); assay: BTK enzyme activity assay, LANCE TR-FRET; assay type: biochemical; settings: 50 pM hBTK, 2 μM biotin-A5-peptide, 25 μM ATP; 60 min compound & enzyme incubation; read-out: IC50 BTK activity value
T1 construct: recombinant protein from baculovirus-transfected Sf9 cells: full-length BTK, 6HIS-tag cleaved; 6HIS (cleaved yes); made in house; host or cells: baculovirus-transfected Sf9 cells
T1 sequence (Q06187 whole entry): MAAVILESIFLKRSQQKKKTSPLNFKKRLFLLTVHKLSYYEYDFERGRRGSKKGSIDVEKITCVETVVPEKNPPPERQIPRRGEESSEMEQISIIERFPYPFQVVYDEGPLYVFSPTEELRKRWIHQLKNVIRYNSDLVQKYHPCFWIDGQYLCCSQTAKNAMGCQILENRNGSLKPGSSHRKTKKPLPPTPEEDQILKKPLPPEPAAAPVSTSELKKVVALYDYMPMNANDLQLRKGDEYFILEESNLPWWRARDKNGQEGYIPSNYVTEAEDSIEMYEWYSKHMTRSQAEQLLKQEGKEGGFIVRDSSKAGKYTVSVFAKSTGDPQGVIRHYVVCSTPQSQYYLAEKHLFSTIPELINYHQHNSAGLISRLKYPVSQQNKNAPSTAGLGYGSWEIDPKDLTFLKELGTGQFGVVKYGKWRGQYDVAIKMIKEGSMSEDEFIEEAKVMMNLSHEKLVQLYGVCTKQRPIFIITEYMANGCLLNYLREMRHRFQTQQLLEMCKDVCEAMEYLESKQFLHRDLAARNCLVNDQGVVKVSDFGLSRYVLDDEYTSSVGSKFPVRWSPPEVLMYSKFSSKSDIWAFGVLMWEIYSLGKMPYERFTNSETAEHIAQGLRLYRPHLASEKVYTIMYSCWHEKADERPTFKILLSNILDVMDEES

| IC50 (HeLa cells) | IC50 [1] | Structure (SMILES) |
| --- | --- | --- |
| 2470 nM | 4 nM | CCOc1cc(C(=O)Nc2cc(C(F)(F)F)n(C)n2)ccc1-c1nc([C@@H]2CC[C@H]3CCC(=O)N3C2)n2c(C(F)(F)F)cnc(N)c12 [Example 215, 4-{8-amino-3-[(6R,8aS)-3-oxooctahydroindolizin-6-yl]-5-(trifluoromethyl)imidazo[1,5-a]pyrazin-1-yl}-3-ethoxy-N-[1-methyl-5-(trifluoromethyl)-1H-pyrazol-3-yl]benzamide] |
| 832 nM | 0.58 nM | Nc1nccn2c([C@@H]3CC[C@H]4CCC(=O)N4C3)nc(-c3ccc(C(=O)Nc4cc(C(F)(F)F)ccn4)cc3O)c12 [Example 118, 4-{8-amino-3-[(6R,8aS)-3-oxooctahydroindolizin-6-yl]imidazo[1,5-a]pyrazin-1-yl}-3-hydroxy-N-[4-(trifluoromethyl)pyridin-2-yl]benzamide] |
| 100 nM | 16.8 nM | C=C[C@H]1OC(=O)N2C[C@H](c3nc(-c4ccc(C(=O)Nc5cc(C(F)(F)F)ccn5)cc4)c4c(N)nccn34)CC[C@@H]12 [Example 110, 4-{8-amino-3-[(1R,6R,8aS)-1-ethenyl-3-oxohexahydro[1,3]oxazolo[3,4-a]pyridin-6-yl]imidazo[1,5-a]pyrazin-1-yl}-N-[4-(trifluoromethyl)pyridin-2-yl]benzamide] |
| 1220 nM | 0.63 nM | CCOc1cc(C(=O)Nc2ncc(C)s2)ccc1-c1nc([C@@H]2CC[C@H]3CCC(=O)N3C2)n2ccnc(N)c12 [Example 159, 4-{8-amino-3-[(6R,8aS)-3-oxooctahydroindolizin-6-yl]imidazo[1,5-a]pyrazin-1-yl}-3-ethoxy-N-(5-methyl-1,3-thiazol-2-yl)benzamide] |
| 2950 nM | 3.7 nM | CCOc1cc(C(=O)Nc2cc(C(F)(F)F)ccn2)c(F)cc1-c1nc([C@@H]2CC[C@H]3CCC(=O)N3C2)n2c(F)cnc(N)c12 [Example 169, 4-{8-amino-5-fluoro-3-[(6R,8aS)-3-oxooctahydroindolizin-6-yl]imidazo[1,5-a]pyrazin-1-yl}-5-ethoxy-2-fluoro-N-[4-(trifluoromethyl)pyridin-2-yl]benzamide] |
| 63.2 nM | 0.14 nM | CC1(C)C[C@H]2CC[C@H](c3nc(-c4ccc(C(=O)Nc5cc(C(F)(F)F)ccn5)cc4)c4c(N)nccn34)CN2C1=O [Example 94, 4-{8-amino-3-[(6S,8aR)-2,2-dimethyl-3-oxooctahydroindolizin-6-yl]imidazo[1,5-a]pyrazin-1-yl}-N-[4-(trifluoromethyl)pyridin-2-yl]benzamide] |
| 88.8 nM | 0.095 nM | Nc1nccn2c([C@H]3CC[C@@H]4CCCC(=O)N4C3)nc(-c3ccc(C(=O)Nc4cc(C(F)(F)F)ccn4)cc3F)c12 [Example 44, 4-{8-amino-3-[(3S,9aS)-6-oxooctahydro-2H-quinolizin-3-yl]imidazo[1,5-a]pyrazin-1-yl}-3-fluoro-N-[4-(trifluoromethyl)pyridin-2-yl]benzamide] |
| 386 nM | 1.6 nM | COc1ccnc(NC(=O)c2ccc(-c3nc([C@@H]4CC[C@H]5CCC(=O)N5C4)n4c(Cl)cnc(N)c34)c(OC)c2)c1 [Example 208, 4-{8-amino-5-chloro-3-[(6R,8aS)-3-oxooctahydroindolizin-6-yl]imidazo[1,5-a]pyrazin-1-yl}-3-methoxy-N-(4-methoxypyridin-2-yl)benzamide] |
| 86.9 nM | 3.8 nM | Nc1ncc(C(F)(F)F)n2c([C@@H]3CC[C@H]4CCC(=O)N4C3)nc(-c3ccc(C(=O)Nc4cc(C5CC5)ccn4)cc3F)c12 [Example 212, 4-{8-amino-3-[(6R,8aS)-3-oxooctahydroindolizin-6-yl]-5-(trifluoromethyl)imidazo [1,5-a]pyrazin-1-yl}-N-(4-cyclopropylpyridin-2-yl)-3-fluorobenzamide] |
| 7810 nM | 14.9 nM | Cc1nsc(NC(=O)c2ccc(-c3nc([C@@H]4CC[C@H]5CCC(=O)N5C4)n4ccnc(N)c34)cc2)n1 [Example 176, 4-{8-amino-3-[(6R,8aS)-3-oxooctahydroindolizin-6-yl]imidazo[1,5-a]pyrazin-1-yl}-N-(3-methyl-1,2,4-thiadiazol-5-yl)benzamide] |
| 2370 nM | 68.9 nM | CC(C)c1nsc(NC(=O)c2ccc(-c3nc([C@@H]4CC[C@H]5CCC(=O)N5C4)n4ccnc(N)c34)cc2)n1 [Example 179, 4-{8-amino-3-[(6R,8aS)-3-oxooctahydroindolizin-6-yl]imidazo[1,5-a]pyrazin-1-yl}-N-[3-(1-methylethyl)-1,2,4-thiadiazol-5-yl]benzamide] |
| 639 nM | 0.52 nM | COc1cc(C(=O)Nc2cc(C(F)(F)F)ccn2)ccc1-c1nc([C@H]2CN3C(=O)CC[C@@H]3CO2)n2ccnc(N)c12 [Example 91, 4-(8-amino-3-((3R,8aR)-6-oxohexahydro-1H-pyrrolo[2,1-c][1,4]oxazin-3-yl)imidazo[1,5-a]pyrazin-1-yl)-3-methoxy-N-(4-(trifluoromethyl)pyridin-2-yl)benzamide] |
| 4850 nM | 1.8 nM | COc1cc(C(=O)Nc2cc(C(F)(F)F)ccn2)c(Cl)cc1-c1nc([C@@H]2CC[C@H]3CCC(=O)N3C2)n2c(Cl)cnc(N)c12 [Example 218, 4-{8-amino-5-chloro-3-[(6R,8aS)-3-oxooctahydroindolizin-6-yl]imidazo[1,5-a]pyrazin-1-yl}-2-chloro-5-methoxy-N-[4-(trifluoromethyl)pyridin-2-yl]benzamide] |
| 285 nM | 1.5 nM | Nc1ncc(F)n2c([C@@H]3CC[C@H]4CCC(=O)N4C3)nc(-c3ccc(C(=O)Nc4cc(C5CC5)ccn4)cc3)c12 [Example 168, 4-{8-amino-5-fluoro-3-[(6R,8aS)-3-oxooctahydroindolizin-6-yl]imidazo[1,5-a]pyrazin-1-yl}-N-(4-cyclopropylpyridin-2-yl)benzamide] |
| 2360 nM | 1.2 nM | CCOc1cc(C(=O)Nc2cc(C(F)(F)F)n(C)n2)ccc1-c1nc([C@@H]2CC[C@H]3CCC(=O)N3C2)n2c(C)cnc(N)c12 [Example 205, 4-{8-amino-5-methyl-3-[(6R,8aS)-3-oxooctahydroindolizin-6-yl]imidazo[1,5-a]pyrazin-1-yl}-3-ethoxy-N-[1-methyl-5-(trifluoromethyl)-1H-pyrazol-3-yl]benzamide] |
| 793 nM | 4 nM | Nc1nccn2c([C@H]3CC[C@@H]4CNCC(=O)N4C3)nc(-c3ccc(C(=O)Nc4cc(C(F)(F)F)ccn4)cc3)c12 [Example 41, 4-{8-amino-3-[(7S,9aR)-4-oxooctahydro-2H-pyrido[1,2-a]pyrazin-7-yl]imidazo[1,5-a]pyrazin-1-yl}-N-[4-(trifluoromethyl)pyridin-2-yl]benzamide] |
| 114 nM | 0.77 nM | C[C@H]1CC(=O)N2C[C@H](c3nc(-c4ccc(C(=O)Nc5cc(C(F)(F)F)ccn5)cc4)c4c(N)nccn34)CC[C@H]12 [Example 64, 4-{8-amino-3-[(1S,6R,8aR)-1-methyl-3-oxooctahydroindolizin-6-yl]imidazo[1,5-a]pyrazin-1-yl}-N-[4-(trifluoromethyl)pyridin-2-yl]benzamide] |
| 57.4 nM | 0.12 nM | Nc1nccn2c([C@@H]3CC[C@H]4COCC(=O)N4C3)nc(-c3ccc(C(=O)Nc4cc(C(F)(F)F)ccn4)cc3F)c12 [Example 39] |
| 1390 nM | 0.75 nM | C#CCCOc1cc(C(=O)Nc2cc(C(F)(F)F)ccn2)ccc1-c1nc([C@@H]2CC[C@H]3CCC(=O)N3C2)n2ccnc(N)c12 [Example 204, 4-{8-amino-3-[(6R,8aS)-3-oxooctahydroindolizin-6-yl]imidazo[1,5-a]pyrazin-1-yl}-3-(but-3-yn-1-yloxy)-N-[4-(trifluoromethyl)pyridin-2-yl]benzamide] |
| 90.4 nM | 0.17 nM | C[C@@H]1OC(=O)N2C[C@H](c3nc(-c4ccc(C(=O)Nc5cc(C(F)(F)F)ccn5)cc4F)c4c(N)nccn34)CC[C@@H]12 [Example 33, 4-{8-amino-3-[(1S,6R,8aS)-1-methyl-3-oxohexahydro[1,3]oxazolo[3,4-a]pyridin-6-yl]imidazo[1,5-a]pyrazin-1-yl}-3-fluoro-N-[4-(trifluoromethyl)pyridin-2-yl]benzamide] |
| 1190 nM | 17.5 nM | CC(C)(C)COc1cc(C(=O)Nc2cc(C(F)(F)F)ccn2)ccc1-c1nc([C@@H]2CC[C@H]3CCC(=O)N3C2)n2ccnc(N)c12 [Example 142, 4-{8-amino-3-[(6R,8aS)-3-oxooctahydroindolizin-6-yl]imidazo[1,5-a]pyrazin-1-yl}-3-(2,2-dimethylpropoxy)-N-[4-(trifluoromethyl)pyridin-2-yl]benzamide] |
| 451 nM | 3.3 nM | Nc1nccn2c([C@@H]3CC[C@H]4CCC(=O)N4C3)nc(-c3ccc(C(=O)Nc4cc(C(F)(F)F)ccn4)nc3)c12 [Example 119, 5-{8-amino-3-[(6R,8aS)-3-oxooctahydroindolizin-6-yl]imidazo[1,5-a]pyrazin-1-yl}-N-[4-(trifluoromethyl)pyridin-2-yl]pyridine-2-carboxamide] |
| 1730 nM | 1.7 nM | COc1cc(C(=O)Nc2ncc(C)s2)ccc1-c1nc([C@@H]2CC[C@H]3CCC(=O)N3C2)n2c(Cl)cnc(N)c12 [Example 203, 4-{8-amino-5-chloro-3-[(6R,8aS)-3-oxooctahydroindolizin-6-yl]imidazo[1,5-a]pyrazin-1-yl}-3-methoxy-N-(5-methyl-1,3-thiazol-2-yl)benzamide] |
